Source: patent EP3046573B1, “AMYLIN ANALOGUES” (Zealand Pharma A/S, priority 2013, dated 2015)
Where two headings read alike, the source gives them in different places. Numbered stars: 1 amine (or outer) side, 2 acyl side, 3 side chain; on linkers, the order of the positions; unused ones are H or OH. Bridge positions count the residues as written; N and C are the ends. Square brackets hold non-standard residues; d marks the D form. Peptide text beside a SMILES is read from it. * marks the point of attachment. Pro(trans-4-Ph) = O=C(O)[C@@H]1C[C@@H](c2ccccc2)CN1; C20 diacid = O=C(O)CCCCCCCCCCCCCCCCCCC(=O)*; γGlu = O=C(O)[C@H](CCC(=O)[*:2])N[*:1]; Hyp = O=C(O)[C@@H]1C[C@@H](O)CN1; NMeI = CC[C@H](C)[C@H](NC)C(=O)O; Sar = CNCC(=O)O

How the values were obtained:
[1] = molecular target: T1, human amylin receptor 3 (hAMYR3) consisting of hCTR2 co-expressed with human Receptor Activity Modifying Protein 3 (hRAMP3) (Homo sapiens, UniProt O60896+P30988); assay: hAMYR3 assay: induction of cAMP (AlphaScreen cAMP Assay kit) in COS7 cells expressing hAMYR3; assay type: cell-based
T1 construct: expressed in transfected cells
T1 sequence (P30988 25-474): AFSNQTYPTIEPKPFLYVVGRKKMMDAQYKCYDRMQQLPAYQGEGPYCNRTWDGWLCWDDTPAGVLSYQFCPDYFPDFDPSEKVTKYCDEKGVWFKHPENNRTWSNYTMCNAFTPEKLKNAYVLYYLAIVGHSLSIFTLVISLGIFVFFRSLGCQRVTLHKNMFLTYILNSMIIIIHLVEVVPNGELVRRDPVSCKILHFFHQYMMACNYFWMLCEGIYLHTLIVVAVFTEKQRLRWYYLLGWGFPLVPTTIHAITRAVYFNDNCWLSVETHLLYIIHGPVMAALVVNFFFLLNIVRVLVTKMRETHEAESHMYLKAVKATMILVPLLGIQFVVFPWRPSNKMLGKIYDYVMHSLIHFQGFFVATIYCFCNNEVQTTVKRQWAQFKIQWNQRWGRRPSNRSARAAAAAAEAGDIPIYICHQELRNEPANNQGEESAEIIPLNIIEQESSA
T1 sequence (O60896 24-148 partner): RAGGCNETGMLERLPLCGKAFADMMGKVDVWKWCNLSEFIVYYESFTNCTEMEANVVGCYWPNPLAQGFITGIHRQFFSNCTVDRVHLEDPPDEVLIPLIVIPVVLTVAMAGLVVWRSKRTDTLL
Excerpt: The cell line COS7, originating from African Green Monkey kidney fibroblast cells, was used for establishment of the stable cell lines described below. The COS7 cellular background was used due to it being RAMP naive, and as such it provides the best available system for testing of the monomeric hCTR and different heterodimeric amylin receptor subtypes functionally generated by introduction of the individual RAMPs.
A cell line expressing the human amylin receptor 3 (hAMYR3) was generated in the COS7 cellular background as stable clones. In brief, hCTR2 (GI:4502547) and hRAMP3 (GI:118572586) were amplified by PCR using primers encoding terminal restriction sites for subcloning. The 5'-end primers additionally encoded a near Kozak consensus sequence to ensure efficient translation. The fidelity of the DNA encoding the receptor was confirmed by DNA sequencing. The PCR products encoding the receptor were subcloned into a proprietary tri-cistronic mammalian expression vector with RAMP3, hCTR2 and neomycin (G418) resistance marker. The mammalian expression vector encoding the receptor was transfected into COS7 cells by a standard liposome transfection method. 48 hours post-transfection, cells were seeded for limited dilution cloning and selected with 1 mg/ml G418 in the culture medium. After 3 weeks, surviving colonies of hAMY3R-expressing cells were picked, propagated and tested in the amylin efficacy assay as described in Example 3 below. The functional generation of the amylin receptor phenotype was verified in the efficacy assay by a left-shifted efficacy response to amylin relative to monomeric calcitonin receptor, and one hAMYR3-expressing clone was chosen for compound profiling.
In vitro activity of test peptides at the hCTR2 and hAMYR3 receptors was assessed by measuring the induction of cAMP following stimulation of the receptor by pramlintide or peptides of the invention using the AlphaScreen® cAMP Assay kit from Perkin-Elmer.
Briefly, COS7 cells expressing hCTR2 (see Example 2, above) were seeded at 30-40,000 cells per well in 96-well microtiter plates coated with 0.01 % poly-L-lysine, and grown for 1 day in culture in 100 µl growth medium [DMEM, 10% FCS, Penicillin (100 IU/ml), Streptomycin (100 µg/ml)]. On the day of analysis, growth medium was removed and the cells were washed once with 200 µl Tyrode buffer [Tyrode's Salts (9.6 g/l), 10 mM HEPES, pH 7.4]. Cells were incubated in 100 µl Tyrode buffer containing increasing concentrations of test peptides, 100 µM IBMX and 0.1% casein for 15 min at 37° C. The reaction was stopped by carefully decanting off the compound/buffer medium and replacing it with lysis/detection buffer (80 µl 0.1 % w/v BSA, 5 mM HEPES, 0.3 % v/v Tween-20 in deionized water). After incubation at room temperature for 10 min., the cAMP content of the resulting cell lysate was estimated according to the AlphaScreen® cAMP Assay manufacturer's instructions. EC50 values and relative efficacy values (in %) compared to reference peptide (Pramlintide) were estimated by computer-aided curve fitting using the 4-parameter logistic (4PL) non-linear model.
The in vitro activity results (expressed as EC50 values) for peptides of the invention and for Pramlintide (reference peptide) are summarized in Table 2, below.

[2] = Solubility assessment (turbidity absorbance at 325 nm); assay type: physicochemical; details: stock 2 mg/ml diluted 1:1, ambient temperature (typically 25°C), n=1
Procedure, shortened: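 Peptide stock (2 mg/ml, water pH 2.5) diluted 1:1 into 100 mM acetate (pH 4.0, 5.0), histidine (pH 6.0, 7.0) or phosphate (pH 6.0–7.5) buffer; absorbance at 325 nm read at about 25°C, n=1. A325 ≤ 0.02 taken as solubility ≥ 1 mg/ml.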

[3] = molecular target: T2, human calcitonin receptor (hCTR2) (Homo sapiens, UniProt P30988); assay: hCTR2 assay: induction of cAMP (AlphaScreen cAMP Assay kit) in COS7 cells expressing hCTR2; assay type: cell-based; details: cAMP induction in COS7 cells expressing hCTR2; average of a minimum of 3 determinations; read-out: hCTR2 EC50
T2 construct: expressed in transfected cells
T2 sequence (P30988 25-474): T1 sequence (P30988 25-474)
Procedure, shortened: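 Stable RAMP-naive COS7 clone expressing hCTR2 was stimulated with increasing peptide concentrations in Tyrode buffer (pH 7.4) with 100 µM IBMX and 0.1% casein for 15 min at 37° C. Cells were lysed and cAMP measured by AlphaScreen. EC50 and efficacy relative to pramlintide came from 4PL curve fits.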

[4] = cAMP induction in COS7 cells expressing hAMYR3, average of a minimum of 3 determinations, read-out: hAMY R3 EC50

SMILES | EC50 [1] [nM] | Solubility, Acetate buffer pH 4 ([2]; 100 mM acetate buffer pH 4.0) | Solubility, Acetate buffer pH 5 ([2]; 100 mM acetate buffer pH 5.0) | Solubility, Histidine buffer pH 6 ([2]; 100 mM histidine buffer pH 6.0) | Solubility, Histidine buffer pH 7 ([2]; 100 mM histidine buffer pH 7.0) | Solubility, Phosphate buffer pH 6 ([2]; 100 mM phosphate buffer pH 6.0) | Solubility, Phosphate buffer pH 7 ([2]; 100 mM phosphate buffer pH 7.0) | Solubility, Phosphate buffer pH 7.5 ([2]; 100 mM phosphate buffer pH7.5) | EC50 [3] [nM] | EC50 [1, 4] [nM]
CC[C@H](C)[C@@H](C(=O)N[C@@H](CC(C)C)C(=O)N[C@@H](CO)C(=O)N[C@@H](CO)C(=O)N[C@H](C(=O)N[C@@H](CC(N)=O)C(=O)N[C@H](C(=O)NCC(=O)N[C@@H](CO)C(=O)N[C@@H](CC(N)=O)C(=O)N[C@H](C(=O)N1CCC[C@H]1C(N)=O)[C@@H](C)O)C(C)C)[C@@H](C)O)N(C)C(=O)[C@H](C)NC(=O)CN(C)C(=O)[C@H](Cc1ccccc1)NC(=O)[C@H](CC(N)=O)NC(=O)[C@H](CC(N)=O)NC(=O)[C@H](CO)NC(=O)[C@H](CO)NC(=O)[C@H](CCCNC(=N)N)NC(=O)[C@H](Cc1c[nH]cn1)NC(=O)[C@H](CC(C)C)NC(=O)[C@H](Cc1ccccc1)NC(=O)[C@H](CCC(=O)O)NC(=O)[C@H](C)NC(=O)[C@H](CC(C)C)NC(=O)[C@H](CCCNC(=N)N)NC(=O)[C@H](CCC(N)=O)NC(=O)[C@@H](NC(=O)[C@H](C)NC(=O)[C@@H]1CSSC[C@H](NC(=O)[C@H](CCCNC(=N)N)NC(=O)[C@H](CCCNC(=N)N)NC(=O)CC[C@H](NC(=O)CCCCCCCCCCCCCCCCCCC(=O)O)C(=O)O)C(=O)N[C@@H](CC(N)=O)C(=O)N[C@@H]([C@@H](C)O)C(=O)N[C@@H](C)C(=O)N[C@@H]([C@@H](C)O)C(=O)N1)[C@@H](C)O [Compound 83, [19CD]-isoGlu-RRC()NTATC()ATQRLAEFLHRSSNNF-Gly(Me)-A-Ile(Me)-LSSTNVGSNTP-NH2] ({C20 diacid-γGlu}-RRCNTATCATQRLAEFLHRSSNNF[Sar]A[NMeI]LSSTNVGSNTP-NH2; disulfide 3-8) | 0.095 | SS (SS indicates solubility ≥ 1mg/ml) | SS (SS indicates solubility ≥ 1mg/ml) | SS (SS indicates solubility ≥ 1mg/ml) | SS (SS indicates solubility ≥ 1mg/ml) | SS (SS indicates solubility ≥ 1mg/ml) | SS (SS indicates solubility ≥ 1mg/ml) | SS (SS indicates solubility ≥ 1mg/ml) |  | 
CC[C@H](C)[C@@H](C(=O)N[C@@H](CC(C)C)C(=O)N[C@@H](CO)C(=O)N[C@@H](CO)C(=O)N[C@H](C(=O)N[C@@H](CC(N)=O)C(=O)N[C@H](C(=O)NCC(=O)N[C@@H](CO)C(=O)N[C@@H](CC(N)=O)C(=O)N[C@H](C(=O)N1C[C@H](O)C[C@H]1C(N)=O)[C@@H](C)O)C(C)C)[C@@H](C)O)N(C)C(=O)CN(C)C(=O)[C@H](Cc1ccccc1)NC(=O)[C@H](CC(N)=O)NC(=O)[C@H](CC(N)=O)NC(=O)[C@H](CO)NC(=O)[C@H](CO)NC(=O)[C@H](CCCNC(=N)N)NC(=O)[C@H](Cc1c[nH]cn1)NC(=O)[C@H](CC(C)C)NC(=O)[C@H](Cc1ccccc1)NC(=O)[C@H](CCC(=O)O)NC(=O)[C@H](C)NC(=O)[C@H](CC(C)C)NC(=O)[C@H](CCCNC(=N)N)NC(=O)[C@H](CCC(N)=O)NC(=O)[C@@H](NC(=O)[C@H](C)NC(=O)[C@@H]1CSSC[C@H](NC(=O)[C@H](CCCNC(=N)N)NC(=O)CC[C@H](NC(=O)CCCCCCCCCCCCCCCCCCC(=O)O)C(=O)O)C(=O)N[C@@H](CC(N)=O)C(=O)N[C@@H]([C@@H](C)O)C(=O)N[C@@H](C)C(=O)N[C@@H]([C@@H](C)O)C(=O)N1)[C@@H](C)O [Compound 106, [19CD]-isoGlu-RC()NTATC()ATQRLAEFLHRSSNNF-Gly(Me)-Ile(Me)-LSSTNVGSNT-Hyp-NH2] ({C20 diacid-γGlu}-RCNTATCATQRLAEFLHRSSNNF[Sar][NMeI]LSSTNVGSNT[Hyp]-NH2; disulfide 2-7) |  |  |  |  |  |  |  |  | 0.12 | 0.14
CC[C@H](C)[C@@H](C(=O)N[C@@H](CC(C)C)C(=O)N[C@@H](CO)C(=O)N[C@@H](CO)C(=O)N[C@H](C(=O)N[C@@H](CC(N)=O)C(=O)N[C@H](C(=O)NCC(=O)N[C@@H](CO)C(=O)N[C@@H](CC(N)=O)C(=O)N[C@H](C(=O)N1C[C@H](c2ccccc2)C[C@H]1C(N)=O)[C@@H](C)O)C(C)C)[C@@H](C)O)N(C)C(=O)CN(C)C(=O)[C@H](Cc1ccccc1)NC(=O)[C@H](CC(N)=O)NC(=O)[C@H](CC(N)=O)NC(=O)[C@H](CO)NC(=O)[C@H](CO)NC(=O)[C@H](CCCNC(=N)N)NC(=O)[C@H](Cc1c[nH]cn1)NC(=O)[C@H](CC(C)C)NC(=O)[C@H](Cc1ccccc1)NC(=O)[C@H](CCC(=O)O)NC(=O)[C@H](C)NC(=O)[C@H](CC(C)C)NC(=O)[C@H](CCCNC(=N)N)NC(=O)[C@H](CCC(N)=O)NC(=O)[C@@H](NC(=O)[C@H](C)NC(=O)[C@@H]1CSSC[C@H](NC(=O)[C@H](CCCNC(=N)N)NC(=O)CC[C@H](NC(=O)CCCCCCCCCCCCCCCCCCC(=O)O)C(=O)O)C(=O)N[C@@H](CC(N)=O)C(=O)N[C@@H]([C@@H](C)O)C(=O)N[C@@H](C)C(=O)N[C@@H]([C@@H](C)O)C(=O)N1)[C@@H](C)O [Compound 113, [19CD]-isoGlu-RC()NTATC()ATQRLAEFLHRSSNNF-Gly(Me)-Ile(Me)-LSSTNVGSNT-Php-NH2] ({C20 diacid-γGlu}-RCNTATCATQRLAEFLHRSSNNF[Sar][NMeI]LSSTNVGSNT[Pro(trans-4-Ph)]-NH2; disulfide 2-7) |  |  |  |  |  |  |  |  | 0.17 | 0.19
